US20220153734A1, “Pyrazolopyridine Compounds For IRE1 Inhibition” (Optikira, LLC, priority 2019, published 2022)

Tests used:
[1] = test system: ARPE-19 cells stably expressing XBP1 (a.a. 1-376); test: Cellular XBP1 splicing assay (NanoLuc luciferase, thapsigargin); type: cell-based; conditions: thapsigargin 150 nM
Procedure, shortened: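 ARPE-19 cells carrying an XBP1(1-376)-NanoLuc splicing reporter were pretreated with compound (10-point ½-log series, 0.117% DMSO) for 30 min, then stressed with 150 nM thapsigargin for 4 h at 37° C. Luminescence was read, and IC50 values came from sigmoidal fits of percent inhibition of control.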

IRE1α [2] = target: T1, IRE1α (Homo sapiens, UniProt O75460); test: Biochemical assay to detect inhibition of kinase activity of IRE1α (ADP-Glo)
T1 construct: purchased Signal Chem E31-11G
Experimental: Biochemical Assays to Detect Inhibition of Kinase Activity of IRE1α
The kinase reactions were performed in 384 well white ProxiPlate-384 Plus plates (PERKIN Elmer 6008280) using 25 mM MOPS assay buffer with 1 mM dithiothreitol, 25 mM MgCl2, 12.5 mM β-glycerophosphate, 5 mM EGTA, and 50 μg/mL BSA. Test compounds were prepared on the day of assay and dispensed using D300 digital dispenser as a 10-point ½ log dilution series in duplicate, normalized to a final DMSO concentration of 3%. Test compounds were pre-incubated for 30 min at room temperature with 10 nM IRE1α kinase (E31-11G from Signal Chem) in 2.5 μL of assay buffer and the reaction started by addition of 2.5 μL of ATP in assay buffer, to give a final ATP concentration of 100 μM and 5 nM IRE1α kinase. After 4 hours incubation at room temperature the reactions were stopped and the kinase activity determined using the ADP-Glo™ reagent from Promega, according to the manufacturer's instructions. Luminescence was measured on a luminometer (EnVision, PerkinElmer) and IC50 values calculated by fitting a sigmoidal curve to percent inhibition of control versus Log10 of compound concentration.

IRE1α [3] = target: T1, IRE1α; test: Biochemical assay: inhibition of RNase activity of IRE1α; conditions: enzyme 0.325 nM, substrate 100 nM, 20 minutes
Procedure, shortened: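 RNase cleavage monitored as dequenching of a 5′ Alexa Fluor 647/3′ quencher RNA oligo (100 nM), stopped with 5 M urea after 20 min at room temperature. Enzyme 0.325 nM, preceded by 30 min compound pre-incubation; buffer Tris/MgCl2/KCl/DTT/Tween, 4% DMSO final. IC50 from curve fit of % inhibition.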

T1 sequence (O75460 468-977 limits assumed): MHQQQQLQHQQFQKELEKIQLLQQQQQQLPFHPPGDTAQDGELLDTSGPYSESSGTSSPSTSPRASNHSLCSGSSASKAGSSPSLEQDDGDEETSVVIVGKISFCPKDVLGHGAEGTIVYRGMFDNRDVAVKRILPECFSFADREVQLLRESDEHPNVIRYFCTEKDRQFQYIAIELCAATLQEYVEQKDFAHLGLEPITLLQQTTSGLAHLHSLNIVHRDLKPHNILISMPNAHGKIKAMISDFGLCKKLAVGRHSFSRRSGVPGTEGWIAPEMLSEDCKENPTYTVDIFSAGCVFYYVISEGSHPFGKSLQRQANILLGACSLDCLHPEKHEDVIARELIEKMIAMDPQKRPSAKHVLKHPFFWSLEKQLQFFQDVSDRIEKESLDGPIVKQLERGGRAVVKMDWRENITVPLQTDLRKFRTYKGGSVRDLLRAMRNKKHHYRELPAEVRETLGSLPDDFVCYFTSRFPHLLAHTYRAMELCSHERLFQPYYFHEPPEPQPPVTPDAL

IC50 ([1]; 4 hour)	IC50 (IRE1α [2])	IC50 (IRE1α [3])	IC50 ([1]; Homo sapiens, ARPE-19, 4 h)	SMILES
6.5 nM	1.9 nM	0.8 nM	–	CC(C)n1nc(-c2ccc(NS(=O)(=O)Cc3ccccc3F)c(F)c2)c2c(N)ncc(C3=CCC(NC4COC4)CC3)c21 (single isomer, unassigned) [Compound B2, N-(4-(4-amino-1-isopropyl-7-(4-(oxetan-3-ylamino)cyclohex-1-en-1-yl)-1H-pyrazolo[4,3-c]pyridin-3-yl)-2-fluorophenyl)-1-(2-fluorophenyl)methanesulfonamide]
47 nM	5.2 nM	5.1 nM	–	CC(C)n1nc(-c2cc(F)c(NS(=O)(=O)Cc3ccccc3Cl)cc2F)c2c(N)ncc(C3=CCC(NC4COC4)CC3)c21 (single isomer, unassigned) [Compound B6, N-(4-(4-amino-1-isopropyl-7-(4-(oxetan-3-ylamino)cyclohex-1-en-1-yl)-1H-pyrazolo[4,3-c]pyridin-3-yl)-2,5-difluorophenyl)-1-(2-chlorophenyl)methanesulfonamide]
57 nM	7 nM	13 nM	–	CC(C)n1nc(-c2cc(F)c(NS(=O)(=O)c3ccccc3Cl)cc2F)c2c(N)ncc(C3=CCC(NC4COC4)CC3)c21 (single isomer, unassigned) [Compound B10, N-(4-(4-amino-1-isopropyl-7-(4-(oxetan-3-ylamino)cyc1ohex-1-en-1-yl)-1H-pyrazolo[4,3-c]pyridin-3-yl)-2,5-difluorophenyl)-2-chlorobenzenesulfonamide]
14 nM	1.8 nM	1.6 nM	–	CC(C)n1nc(-c2ccc(NS(=O)(=O)Cc3ccccc3Cl)c(F)c2)c2c(N)ncc(C3=CCC(NC4COC4)CC3)c21 (single isomer, unassigned) [Compound B12, N-(4-(4-amino-1-isopropyl-7-(4-(oxetan-3-ylamino)cyclohex-1-en-1-yl)-1H-pyrazolo[4,3-c]pyridin-3-yl)-2-fluorophenyl)-1-(2-chlorophenyl)methanesulfonamide]
22 nM	4.1 nM	2.7 nM	–	CCn1nc(-c2ccc(NS(=O)(=O)Cc3ccccc3F)c(F)c2)c2c(N)ncc(C3=CCC(NC4COC4)CC3)c21 (single isomer, unassigned) [Compound B26, N-(4-(4-amino-1-ethyl-7-(4-(oxetan-3-ylamino)cyclohex-1-en-1-yl)-1H-pyrazolo[4,3-c]pyridin-3-yl)-2-fluorophenyl)-1-(2-fluorophenyl)methanesulfonamide]
27 nM	3.9 nM	2.4 nM	–	CCn1nc(-c2ccc(NS(=O)(=O)Cc3ccccc3Cl)c(F)c2)c2c(N)ncc(C3=CCC(NC4COC4)CC3)c21 (single isomer, unassigned) [Compound B28, N-(4-(4-amino-1-ethyl-7-(4-(oxetan-3-ylamino)cyclohex-1-en-1-yl)-1H-pyrazolo[4,3-c]pyridin-3-yl)-2-fluorophenyl)-1-(2-chlorophenyl)methanesulfonamide]
36 nM	5.9 nM	–	–	CC(C)n1nc(-c2ccc(NS(=O)(=O)c3ccccc3F)c(F)c2)c2c(N)ncc(C3=CCC(NC4COC4)CC3)c21 (single isomer, unassigned) [Compound B59, N-(4-(4-amino-1-isopropyl-7-(4-(oxetan-3-ylamino)cyclohex-1-en-1-yl)-1H-pyrazolo[4,3-c]pyridin-3-yl)-2-fluorophenyl)-2-fluorobenzenesulfonamide]
–	1.9 nM	5.7 nM	7.9 nM	CC(C)n1nc(-c2ccc(NS(=O)(=O)c3ccccc3F)c(F)c2)c2c(N)ncc([C@H]3CC[C@H](NC4COC4)CC3)c21 [Compound A1, N-(4-(4-amino-1-isopropyl-7-((1r,4r)-4-(oxetan-3-ylamino)cyclohexyl)-1H-pyrazolo[4,3-c]pyridin-3-yl)-2-fluorophenyl)-2-fluorobenzenesulfonamide]
–	3 nM	3.5 nM	4.3 nM	CC(C)n1nc(-c2ccc(NS(=O)(=O)c3ccccc3Cl)c(F)c2)c2c(N)ncc([C@H]3CC[C@H](NC4COC4)CC3)c21 [Compound A34, N-(4-(4-amino-1-isopropyl-7-((1r,4r)-4-(oxetan-3-ylamino)cyclohexyl)-1H-pyrazolo[4,3-c]pyridin-3-yl)-2-fluorophenyl)-2-chlorobenzenesulfonamide]
–	4.3 nM	8 nM	16 nM	Nc1ncc([C@H]2CC[C@H](NC3COC3)CC2)c2c1c(-c1ccc(NS(=O)(=O)c3ccccc3F)c(F)c1)nn2C1CC1 [Compound A41, N-(4-(4-amino-1-cyclopropyl-7-((1r,4r)-4-(oxetan-3-ylamino)cyclohexyl)-1H-pyrazolo[4,3-c]pyridin-3-yl)-2-fluorophenyl)-2-fluorobenzenesulfonamide]
–	–	7 nM	11 nM	COCC(C)NC1CC=C(c2cnc(N)c3c(-c4ccc(NS(=O)(=O)c5ccccc5Cl)c(F)c4)nn(C(C)C)c23)CC1 (stereo not shown) [Compound B3]
–	–	82 nM	740 nM	CCn1nc(-c2cc(F)c(NS(=O)(=O)c3ccccc3F)cc2F)c2c(N)ncc(C3=CCC(NC4COC4)CC3)c21 (stereo not shown) [Compound B30, N-(4-(4-amino-1-ethyl-7-(4-(oxetan-3-ylamino)cyclohex-1-en-1-yl)-1H-pyrazolo[4,3-c]pyridin-3-yl)-2,5-difluorophenyl)-2-fluorobenzenesulfonamide]
–	–	47 nM	130 nM	CCn1nc(-c2cc(F)c(NS(=O)(=O)c3ccccc3Cl)cc2F)c2c(N)ncc(C3=CCC(NC4COC4)CC3)c21 (stereo not shown) [Compound B31, N-(4-(4-amino-1-ethyl-7-(4-(oxetan-3-ylamino)cyclohex-1-en-1-yl)-1H-pyrazolo[4,3-c]pyridin-3-yl)-2,5-difluorophenyl)-2-chlorobenzenesulfonamide]
–	–	21 nM	340 nM	CCn1nc(-c2cc(F)c(NS(=O)(=O)Cc3ccccc3Cl)cc2F)c2c(N)ncc(C3=CCC(NC4COC4)CC3)c21 (stereo not shown) [Compound B32, N-(4-(4-amino-1-ethyl-7-(4-(oxetan-3-ylamino)cyclohex-1-en-1-yl)-1H-pyrazolo[4,3-c]pyridin-3-yl)-2,5-difluorophenyl)-1-(2-chlorophenyl)methanesulfonamide]
–	–	20 nM	74 nM	CCn1nc(-c2ccc(NS(=O)(=O)c3cc(OC)ccc3Cl)c(F)c2)c2c(N)ncc(C3=CCC(NC4COC4)CC3)c21 (stereo not shown) [Compound B37, N-(4-(4-amino-1-ethyl-7-(4-(oxetan-3-ylamino)cyclohex-1-en-1-yl)-1H-pyrazolo[4,3-c]pyridin-3-yl)-2-fluorophenyl)-2-chloro-5-methoxybenzenesulfonamide]
–	–	79 nM	240 nM	CC(C)n1nc(-c2cc(F)c(NS(=O)(=O)c3ccccc3F)cc2F)c2c(N)ncc(C3=CCC(NC4COC4)CC3)c21 (stereo not shown) [Compound B60, N-(4-(4-amino-1-isopropyl-7-(4-(oxetan-3-ylamino)cyclohex-1-en-1-yl)-1H-pyrazolo[4,3-c]pyridin-3-yl)-2,5-difluorophenyl)-2-fluorobenzenesulfonamide]
–	–	16 nM	21 nM	CC(C)n1nc(-c2ccc(NS(=O)(=O)c3ccccc3Cl)c(F)c2)c2c(N)ncc(C3=CCC(NCCF)CC3)c21 (stereo not shown) [Compound B63, N-(4-(4-amino-7-(4-((2-fluoroethyl)amino)cyclohex-1-en-1-yl)-1-isopropyl-1H-pyrazolo[4,3-c]pyridin-3-yl)-2-fluorophenyl)-2-chlorobenzenesulfonamide]
